Laboratory results reported in ChEMBL document CHEMBL3784927, “Serum azathioprine and 6-mercaptopurine levels and immunosuppressive activity after azathioprine in uremic patients” (Int J Immunopharmacol, 1986).

How the values were obtained:
[1] = Cmax in uremic patient (15 patients) at 100 mg, iv by gas chromatography-mass spectrometry with multiple detection method; conditions: human, in vivo
[2] = Tmax in uremic patient (15 patients) at 100 mg, iv by gas chromatography-mass spectrometry with multiple detection method; conditions: human, in vivo
[3] = Primary phase half life in uremic patient (13 patients) at 100 mg, iv by gas chromatography-mass spectrometry with multiple detection method; conditions: human, in vivo
[4] = Terminal phase half life in uremic patient (15 patients) at 100 mg, iv by gas chromatography-mass spectrometry with multiple detection method; conditions: human, in vivo
[5] = AUC (0 to infinity) in uremic patient (15 patients) at 100 mg, iv by gas chromatography-mass spectrometry with multiple detection method; conditions: human, in vivo
[6] = Total clearance in uremic patient (15 patients) at 100 mg, iv by gas chromatography-mass spectrometry with multiple detection method; conditions: human, in vivo
[7] = Volume of distribution in uremic patient (15 patients) at 100 mg, iv by gas chromatography-mass spectrometry with multiple detection method; conditions: human, in vivo
[8] = Cmax in uremic patient (8 patients) at 100 mg, po by gas chromatography-mass spectrometry with multiple detection method; conditions: human, in vivo
[9] = Tmax in uremic patient (8 patients) at 100 mg, po by gas chromatography-mass spectrometry with multiple detection method; conditions: human, in vivo
[10] = AUC (0 to infinity) in uremic patient (7 patients) at 100 mg, po by gas chromatography-mass spectrometry with multiple detection method; conditions: human, in vivo
[11] = Half life in human with good renal function; conditions: in vivo
[12] = Clearance in kidney transplant patient; conditions: human, in vivo

Cmax [1]: 3140 nM
Tmax [2]: 5 min
half-life [3]: 6.05 min
half-life [4]: 49.5 min
AUC(0-inf) [5]: 1.04 µM·h
clearance [6]: 6920 mL/min
Vd [7]: 438 L
Cmax [8]: 180 nM
Tmax [9]: 15 min
AUC(0-inf) [10]: 0.164 µM·h
half-life [11]: 10 min
clearance [12]: 57 mL/min/kg
Compound: Cn1cnc([N+](=O)[O-])c1Sc1ncnc2nc[nH]c12 [AZATHIOPRINE]
